Drawing on patent US12390437B2, “Itaconic acid derivatives and uses thereof intreating an inflammatory disease or a disease associated with an undesirable immune response” (Sitryx Therapeutics Limited, priority 2019, dated 2025), this text covers IC50 for 31 compounds.

Structures are written as SMILES.

The test system of one test is IL-1β cytokine output from THP-1s. The test is described as follows: THP-1 AlphaLISA IL-1β cytokine assay. Format: cell-based, human. The following applies: Homo sapiens, THP-1, PMA-differentiated THP-1 cells, LPS 24 hr then Nigericin 1 hour; read-out: IL-1β (IC50). The procedure: Measuring Inhibitory Effects on IL-1β and IL-6 Cytokine Output from THP-1s
The cytokine inhibition profiles of compounds of formula (IW-1) were determined in a differentiated THP-1 cell assay. All assays were performed in RPMI-1640 growth medium (Gibco), supplemented with 10% fetal bovine serum (FBS; Gibco), 1% penicillin-streptomycin and 1% sodium pyruvate unless specified otherwise. The IL-1β and IL-6 cytokine inhibition assays were each run in a background of differentiated THP-1 cells as described below. All reagents described were from Sigma-Aldrich unless specified otherwise. Compounds were prepared as 10 mM DMSO stocks.
THP-1 cells were expanded as a suspension up to 80% confluence in appropriate growth medium. Cells were harvested, suspended, and treated with an appropriate concentration of phorbol 12-myristate 13-acetate (PMA) over a 72 hr period (37° C./5% CO2).
Following 72 hrs of THP-1 cell incubation, cellular medium was removed and replaced with fresh growth media containing 1% of FBS. Working concentrations of compounds were prepared separately in 10% FBS treated growth medium and pre-incubated with the cells for 30 minutes (37° C./5% CO2). Following the 30 minute compound pre-incubation, THP-1s were treated with an appropriate concentration of LPS and the THP-1s were subsequently incubated for a 24 hr period (37° C./5% CO2). An appropriate final concentration of Nigericin was then dispensed into the THP-1 plates and incubated for 1 hour (37° C./5% CO2) before THP-1 supernatants were harvested and collected in separate polypropylene 96-well holding plates.
Reagents from each of the IL-1β and IL-6 commercial kits (Perkin Elmer) were prepared and run according to the manufacturer's instructions. Subsequently, fluorescence signal detection in a microplate reader was measured (EnVision® Multilabel Reader, Perkin Elmer).
Percentage inhibition was calculated per cytokine by normalising the sample data to the high and low controls used within each plate (+/−LPS respectively). Percentage inhibition was then plotted against compound concentration and the 50% inhibitory concentration (IC50) was determined from the resultant concentration-response curve.
Background: Bead proximity is the source of the signal in Alpha formats.
The IC50 is the concentration needed to halve the response being measured. Consider `C=C(CC(=O)OC(C)c1cc(Cl)cc(Cl)c1)C(=O)OCC(=O)O` (single isomer, unassigned; isomer 1) [Example 198, 2-((4-(1-(3,5-dichlorophenyl)ethoxy)-2-methylene-4-oxobutanoyl)oxy)acetic acid (Isomer 1)], for which the IC50 was 22 µM.

For `C=C(CC(=O)OC1CCCCC1)C(=O)OCc1nnn(C)n1` [Example 142, 4-cyclohexyl 1-((2-methyl-2H-tetrazol-5-yl)methyl) 2-methylenesuccinate], the IC50 worked out at 6.2 µM.

Consider `C=C(C(=O)OCC(=O)O)C(C)C(=O)OC1CCCCCCC1` (stereo not shown) [Example 168, 2-((4-(cyclooctyloxy)-3-methyl-2-methylene-4-oxobutanoyl)oxy)acetic acid], for which the IC50 was 49.3 µM.

As for `C=C(CC(=O)OCCCCCC)C(=O)OC1CCN(S(C)(=O)=O)CC1` [Example 76, 4-hexyl 1-(1-(methylsulfonyl)piperidin-4-yl) 2-methylenesuccinate], the IC50 worked out at 4.1 µM.

Take `C=C(CC(=O)OC1C2CCCC1CCC2)C(=O)OCC(=O)O` (stereo not shown) [Example 181, 2-((4-(bicyclo[3.3.1]nonan-9-yloxy)-2-methylene-4-oxobutanoyl)oxy)acetic acid]: the IC50 is 32.8 µM.

On to `C=C(CC(=O)OC1CCCCCCC1)C(=O)OCC(=O)N(C)CC(=O)O` [Example 103, N-(2-((4-(cyclooctyloxy)-2-methylene-4-oxobutanoyl)oxy)acetyl)-N-methylglycine], for which the IC50 came to 55.5 µM.

For the compound `C=C(CC(=O)OC(CC)CCCCC)C(=O)OCC(=O)O` (stereo not shown) [Example 146, 2-(2-methylene-4-(octan-3-yloxy)-4-oxobutanoyloxy)acetic acid], the IC50 was determined as 8.5 µM.

For the compound `C=C(CC(=O)OC1CCCCCCC1)C(=O)OCC(C)(C)S(=O)(=O)c1cccc(Cl)c1` [Example 131, 1-(2-((3-chlorophenyl)sulfonyl)-2-methylpropyl) 4-cyclooctyl 2-methylenesuccinate], the IC50 amounted to 4.4 µM.

Take `C=C(CC(=O)OC1CCCCC1)C(=O)OCc1nnnn1C` [Example 143, 4-cyclohexyl 1-((1-methyl-1H-tetrazol-5-yl)methyl) 2-methylenesuccinate]: the IC50 worked out at 2 µM.

Turning to `C=C(CC(=O)O[C@@H](C)CCCCCC)C(=O)OCC(=O)N(C)CC(=O)O` [Example 105, (S)-N-methyl-N-(2-((2-methylene-4-(octan-2-yloxy)-4-oxobutanoyl)oxy)acetyl)glycine], the IC50 stood at 27.9 µM.

Regarding `C=C(CC(=O)OC1C(C)(C)CCCC1(C)C)C(=O)OCC(=O)O` [Example 197], the IC50 came out at 21.4 µM.

Turning to `C=C(CC(=O)OC1CC2(CCCC2)C1)C(=O)OCC(=O)O` [Example 152, 2-(2-methylene-4-oxo-4-(spiro[3.4]octan-2-yloxy)butanoyloxy)acetic acid], the IC50 came out at 10.3 µM.

Turning to `C=C(CC(=O)OC(CCC)CCC)C(=O)OCC(=O)O` [Example 148, 2-((4-(heptan-4-yloxy)-2-methylene-4-oxobutanoyl)oxy)acetic acid], the IC50 amounted to 29.6 µM.

`C=C(CC(=O)OC1C2CC3CC(C2)CC1C3)C(=O)OCC(=O)O` (stereo not shown) [Example 149, 2-((4-((adamantan-2-yl)oxy)-2-methylene-4-oxobutanoyl)oxy)acetic acid]: the half-inhibitory concentration (IC50) was found to be 12.1 µM.

In the case of `C=C(CC(=O)OC1CCCCCCC1)C(=O)O[C@@H](C)[C@@H](NC(C)=O)C(=O)O` (stereo in doubt) [Example 136, (2R,3S)-2-acetamido-3-((4-(cyclooctyloxy)-2-methylene-4-oxobutanoyl)oxy)butanoic acid], the IC50 is 54.2 µM.

In the case of `C=C(CC(=O)O[C@@H](C)CCCCCC)C(=O)OC(c1nn[nH]n1)C1CC1` (stereo partly drawn) [Example 166, 1-(cyclopropyl(1H-tetrazol-5-yl)methyl) 4-((S)-octan-2-yl) 2-methylenesuccinate], the IC50 was found to be 67.4 µM.

For the compound `C=C(CC(=O)OC1(C2CCCCC2)CCC1)C(=O)OCC(=O)O` [Example 191, 2-((4-(1-cyclohexylcyclobutoxy)-2-methylene-4-oxobutanoyl)oxy)acetic acid], the IC50 worked out at 26.6 µM.

Take `C=C(CC(=O)OC(C)Cc1cc(Cl)cc(Cl)c1)C(=O)OCC(=O)O` (stereo not shown) [Example 177, 2-((4-((1-(3,5-dichlorophenyl)propan-2-yl)oxy)-2-methylene-4-oxobutanoyl)oxy)acetic acid]: the IC50 stood at 20.5 µM.

Take `C=C(CC(=O)OC(C)CCCCCCC)C(=O)OCC(=O)O` (stereo not shown) [Example 174, 2-((2-methylene-4-(nonan-2-yloxy)-4-oxobutanoyl)oxy)acetic acid]: the IC50 turned out to be 10.9 µM.

Regarding `C=C(CC(=O)OC(C)C1CCCCCC1)C(=O)OCC(=O)O` (stereo not shown) [Example 151, 2-((4-(1-cycloheptylethoxy)-2-methylene-4-oxobutanoyl)oxy)acetic acid], the IC50 worked out at 10.3 µM.

Regarding `C=C(CC(=O)O[C@@H](C)CCCCCC)C(=O)OCC(=O)NCC(=O)O` [Example 106, (S)-(2-((2-methylene-4-(octan-2-yloxy)-4-oxobutanoyl)oxy)acetyl)glycine], the IC50 worked out at 15.6 µM.

Turning to `C=C(CC(=O)OCCCCCCCC)C(=O)OC1CCOCC1` [Example 26, 4-octyl 1-(tetrahydro-2H-pyran-4-yl) 2-methylenesuccinate], the IC50 was determined as 16.1 µM.

With `C=C(CC(=O)O[C@H](C)CCCCCC)C(=O)O[C@H](CC(=O)O)C(F)(F)F` [Example 188, (R)-4,4,4-trifluoro-3-((2-methylene-4-(((R)-octan-2-yl)oxy)-4-oxobutanoyl)oxy)butanoic Acid], the IC50 was 3.5 µM.

For the compound `C=C(CC(=O)OC(CCC)CCCC)C(=O)OCC(=O)O` (stereo not shown) [Example 147, 2-(2-methylene-4-(octan-4-yloxy)-4-oxobutanoyloxy)acetic acid], the IC50 was 13.4 µM.

In the case of `C=C(CC(=O)OC(C)C1CCCCC1)C(=O)OCC(=O)O` (stereo not shown) [Example 150, 2-((4-(1-cyclohexylethoxy)-2-methylene-4-oxobutanoyl)oxy)acetic acid], the IC50 was found to be 11.7 µM.

As for `C=C(CC(=O)OC1CC2(CCCCC2)C1)C(=O)OCC(=O)O` [Example 153, 2-(2-methylene-4-oxo-4-(spiro[3.5]nonan-2-yloxy)butanoyloxy)acetic acid], the IC50 is 7 µM.

Regarding `C=C(CC(=O)O[C@H](C)CCCCCC)C(=O)OC(C)Cc1nnn[nH]1` (stereo partly drawn) [Example 140, 1-(1-(1H-tetrazol-5-yl)propan-2-yl) 4-((R)-octan-2-yl) 2-methylenesuccinate], the IC50 was determined as 7.8 µM.

Regarding `C=C(CC(=O)OC1CCCCC1)C(=O)OC(C(=O)O)C(F)(F)F` (stereo not shown) [Example 121, 2-((4-(cyclohexyloxy)-2-methylene-4-oxobutanoyl)oxy)-3,3,3-trifluoropropanoic acid], the IC50 was determined as 54.2 µM.

Take `C=C(CC(=O)OC1C(C)(C)CC1(C)C)C(=O)OCCC(=O)O` [Example 207, 3-((2-methylene-4-oxo-4-(2,2,4,4-tetramethylcyclobutoxy)butanoyl)oxy) propanoic Acid]: the IC50 came to 100 µM.

The test is the same for the next values; noted with them: Homo sapiens; PMA-differentiated THP-1 cells, LPS 24 hr then Nigericin 1 hour; read-out: IL-1β (IC50).
For the compound `C=C(CC(=O)OC1CCCCC1)C(=O)OC1CCCCC1` [Example 167, dicyclohexyl 2-methylenesuccinate], the IC50 was 29.1 µM.

For `C=C(C(=O)OCC(=O)O)C(OC)C(=O)OC1CCCCCCC1` (stereo not shown) [Example 171, 2-((4-(cyclooctyloxy)-3-methoxy-2-methylene-4-oxobutanoyl)oxy)acetic Acid], the IC50 stood at 21.8 µM.
